We go through six molecules from US8071575B2, “Methods and compounds for the targeted delivery of agents to bone for interaction therewith” (priority 2007, dated 2011).

SMILES strings stand for the structures.

Data set [1] concerns OVX rats. In words: RatLaps ELISA for C-telopeptide fragments of collagen type I (CTX-I) in serum. The class given is in vivo, Sprague-Dawley female rats. The note with it: Formula 125 at 1000 μg/kg, 17-ethinyl estradiol equimolar, alendronate 1.6 mg/kg.
Excerpt: RatLaps™ ELISA for C-Telopeptide Fragments of Collagen Type I (CTX-I). […] Bone resorption (CTX-I) was quantitatively assessed in rat serum using the commercially available RatLaps™ ELISA KIT from Nordic Bioscience Diagnostics A/S (Herlev, Denmark) as recommended by the manufacturer.
Data set [2] has as its system OVX rats. In words: Femoral density via Archimedes' Principle (whole bone). The class given is in vivo, Sprague-Dawley female rats. The note with it: for whole bone density and regional bone density: present-tense example, no data or figure. As to the method:
(§1) Animals. Six month old, bilaterally ovariectomized (OVX) or sham operated Sprague-Dawley female rats (Harlan Laboratories, Indianapolis, Ind.) were maintained at the University of Louisville Research Resources Center at 22° C. with a 12-h light/dark cycle and ad libitum access to tap water and rodent chow (Purina Laboratory Rodent Diet 5001). All animal procedures were approved by the Institutional Animal Care and Use Committee, which is certified by the American Association for Accreditation of Laboratory Animal Care.
(§2) In vivo experiments were conducted in order to investigate the efficacy of compounds of the presently-disclosed subject matter. In all of the experiments, OVX and sham operated rats were randomly divided into groups of 5-7 animals. In all of the studies experimental groups included: i) Sham-operated control (euthanized six weeks post surgery as a pretreatment control), ii) OVX control (euthanized six weeks post surgery as a pretreatment control), iii) Sham control receiving vehicle, iv) OVX control receiving vehicle, v) OVX receiving 17-ethinyl estradiol (equimolar concentration with a selected test compound), vi) OVX receiving alendronate (1.6 mg/kg), and vii) OVX receiving parathyroid hormone 1-34 (PTH) ([…]). 17-ethinyl estradiol (17 EE) is a free estrogenic agent known to be orally active, and can serve as an example of an anti-catabolic agent. Alendronate (Alen) is a bisphosphonate that is currently used to treat osteoporosis (e.g., Fosamax®, Merck & Co., Inc,), and can serve as an example of an anti-catabolic agent. Parathyroid hormone 1-34 (PTH) is an agent that can serve as an example of an anabolic agent. All compounds and vehicle (1% DMSO in corn oil) were administered three times per week orally by gavage except for PTH which was administered via a subcutaneous injection in a volume of 0.5 ml/kg body mass thrice per week. Compound administration was initiated 6 weeks following surgery and lasted for 6 weeks (18 doses total).
(§3) Compounds of the presently-disclosed subject matter were orally administered to OVX rats at various doses. As indicated above all BTE's were administered three times per week for 6 weeks.
(§4) Following 6 weeks of treatment, blood was obtained from each animal via cardiac puncture following an overnight fast and animals were subsequently euthanized via carbon dioxide asphyxiation. Blood was centrifuged immediately and the obtained serum samples were aliquoted and stored at −70° C. prior to analysis. Uteri were removed and fresh weights were obtained. Uterine masses were normalized to body mass at the end of the experiment. The left and right femora and left and right tibiae were subsequently collected from each animal, cleaned of soft tissue, and stored in saline at 4° C. prior to analysis.
Femoral Density via Archimedes' Principle. Right femora were submerged in distilled water and fully hydrated under a vacuum for 1 hr. Subsequently, the mass of each hydrated femur was obtained in air and when submerged in water. Densities were determined using Archimedes' Principle according to the following formula: density=[mass of hydrated femur/(mass of hydrated femur−mass of hydrated femur submerged in water)]×density of distilled water at a given temperature (See Keenan, et al. Comparison of bone density measurement techniques: DXA and Archimedes' principle. J Bone Miner Res 1997; 12:1903-7.). The obtained density measurements were associated with whole bone.

Data set [3] concerns OVX rats. In words: Volume fraction, ex vivo micro-computed tomography of tibia. It is filed as in vivo, Sprague-Dawley female rats. The note with it: for volume fraction (BV/TV) of trabecular, cortical and whole bone tissue: present-tense example, no data or figure. As to the method:
as §1, §2, §3, §4
Volume Fraction—Ex vivo micro-computed tomography (μCT). Volume fraction is a representative value for the amount of bone that occupies a given volume or space. High resolution image data were collected using a customized micro-CT system (ACTIS 150/225 system, BIR Inc., Lincolnshire, Ill.). The metaphysis of each right tibia was scanned over a three millimeter range and three-dimensional images were reconstructed. Data were subsequently processed to reveal the volume fraction (BV/TV) occupied by trabecular (cancellous) bone tissue, cortical bone tissue, and whole bone tissue. The resulting data provides information regarding the density of whole bone, cortical bone, and trabecular bone.

A short description of data set [4]: Hydroxyapatite (HA) Binding Assay. The note with it: 10^−5 M analyte, 50 mM Tris-HCl pH 7.4, 1% DMSO; adjusted such that tetracycline = 100. On the procedure:
A Hydroxyapatite (HA) Binding Assay is used to determine whether compounds have an affinity for bone. Compounds of the presently-disclosed subject matter having a Bone Targeting Portion (RT) are studied using the HA Binding Assay. A 10^−3 M solution of each analyte was made in 100% dimethylsulfoxide (DMSO). A 100 fold dilution was then made to form a 10^−5 M solution in 50 mM Tris-HCl buffer, pH 7.4, 1% DMSO. Tetracycline was used as a reference analyte and approximately 50% was adsorbed to HA at the concentration of 10^−5 M. The HA slurry was 0.5 g/100 mL 50 mM Tris-HCl buffer, 1% DMSO.
For each analyte, two samples were prepared. For one sample, 1 mL of 10^−5 M analyte and 100 μL 50 mM Tris-HCl buffer, 1% DMSO was pipetted into a microcentrifuge tube. For the second sample, 1 mL of 10^−5 M analyte and 100 μL of the HA slurry was pipetted into a microcentrifuge tube. The samples were mixed gently by inversion for 4 minutes and then centrifuged at 12,000 g for 3 minutes to sediment the HA contained in those samples. The supernatant was transferred to another microcentrifuge tube.
An electronic spectral scan (ultraviolet-visible) from 220-520 nm was obtained for each analyte using a Varian Cary 300 Bio Scan. The blank was 50 mM Tris-HCl buffer, 1% DMSO. The wavelength of maximum absorbance (λmax) was determined, and the extinction coefficient (ε) was calculated using the Beer-Lambert Law.
The absorbance of the samples incubated with HA was measured at λmax, and the molar concentration of the analyte was then determined using the Beer-Lambert Law and the previously calculated extinction coefficient. The fraction adsorbed to HA for each sample was subsequently calculated.

The next data set deals with ICR Swiss mice. In words: Stimulation of periosteal bone formation in a mouse calvarial injection model. It is filed as in vivo. Conditions: present-tense example, no data or figure. As to the method: Stimulation of Periosteal Bone Formation in a Mouse Calvarial Injection Model. The anabolic (bone formation) of compounds of the presently-disclosed subject matter are evaluated in the mouse calvarial injection model. Briefly, 4-week-old ICR Swiss mice are injected subcutaneously over the surface of the calvariae with compounds of the presently-disclosed subject matter at concentrations of 0, 1, 3, and 10 mg/kg/day for 5 days (twice a day). Microtubule inhibitor TN-16 (5 mg/kg/day for 2 days, twice a day) are used as a positive control. Mice are sacrificed two weeks after the injections are completed. Dissected calvarial samples are fixed in 10% phosphate-buffered formalin for 2 days, decalcified in 10% EDTA for 2 weeks and then embedded in paraffin. Histological sections are cut and stained with H&E and orange G. New woven bone formation (new bone area) is quantified by histomorphometry using the OsteoMeasure system (OsteoMetrics Inc., Atlanta, Ga.).

The subject of data set [5] is OVX rats. In words: Bone mechanical competence indentation test. It is filed as in vivo, Sprague-Dawley female rats. The note with it: for bone strength (indentation test): present-tense example, no data or figure. On the procedure: as §1, §2, §3, §4
Bone Mechanical Competence Indentation Test. After sacrifice, the left tibiae were trimmed to expose the cancellous bone of the proximal tibial metaphysis and an indentation test was performed by advancing a flat-tipped cylindrical post (1.5 mm diameter) axially into the cut surface to measure the compressive strength of the cancellous bone structure.

In data set [6] the test system is OVX rats. In words: Quantitative determination of lipid metabolism (total cholesterol, HDL, LDL) in rat serum. The class given is in vivo, Sprague-Dawley female rats. On the procedure: as §1, §2, §4
Quantitative Determination of Lipid Metabolism (Total Cholesterol HDL, and LDL) in Rat Serum. Total cholesterol, high-density lipoprotein (HDL), and low-density lipoprotein (LDL) were quantitatively determined in the serum of rats in order to evaluate the extraosseous effects of estrogen treatment on lipid metabolism. Commercially available kits from Wako Diagnostics (Richmond, Va.) were used for the evaluations as recommended by the manufacturer.

Data set [7] concerns OVX rats. In words: Uterine mass and uterine mass to body weight ratio in OVX rats. Conditions: present-tense example, no data or figure. The class given is in vivo, Sprague-Dawley female rats. As to the method:
as §1, §2, §3, §4
Uterine Mass and Body Weight. […] Uterine mass can be used to as a measure of estrogenic effect occurring in a tissue outside the bone in response to treatment with a test compound or composition. Generally, a lower uterine mass can be associated with a decreased risk of adverse side effects associated with the test compound or composition. A ratio of uterine mass to body weight can be used to correct for any increase in uterine size attributable to the relative size of the individual animal. Body weight and/or uterine mass also serve as an indirect measures of toxicity of a test compound.

Data set [8] has as its system OVX rats. In words: Regional femoral density via Archimedes' Principle. It is filed as in vivo, Sprague-Dawley female rats. The note with it: oral 10, 100, or 1000 μg/kg, three times per week for 6 weeks. On the procedure: as §1, §2, §3
Following 6 weeks of treatment, blood was obtained from each animal via cardiac puncture following an overnight fast and animals were subsequently euthanized via carbon dioxide asphyxiation. […]
Regional Femoral Density via Archimedes' Principle. […] Briefly, each femur was measured with a Cen-Tech Digital Caliper and a cut was made from each end at 20% of the length of the femur plus half the width of the blade. Subsequently, the bone marrow was washed out of the femoral diaphysis and the Archimedes density for each of the three femoral regions was determined as described above.

The mark [9] stands for this setting: present-tense example, no data or figure.
Setting [10] is: OVX rats, oral 10, 100, or 1000 μg/kg.

Consider `C#C[C@]1(O)CC[C@H]2[C@@H]3CCc4cc(O)ccc4[C@H]3CC[C@@]21C` [17-ethinyl estradiol], for which, in the data set on OVX rats [1], the “production of CTX-I (bone resorption marker) in serum” value is “descrease the production of CTX-1 to sham levels”.
Turning to `COc1ccc(NC(=O)CCC(=O)Nc2nnc(S(N)(=O)=O)s2)c(O)c1C(N)=O` [Formula 35], in the data set on OVX rats [2], the “whole bone density and regional bone density” value is “increase bone density”. Besides, the “volume fraction (BV/TV) of trabecular, cortical and whole bone tissue” value (shortened to “volume fraction (BV/TV) of trabecular”) in the data set with OVX rats [3] is given as “increase bone density”. In addition, the “Binding Index (binding to hydroxyapatite)” value (shortened to “Binding Index”) in data set [4] came out at 20. Also, the “new bone area (calvarial injection model)” value (shortened to “new bone area”) in the data set on ICR Swiss mice is given as “increase new bone area”. Besides, the “bone strength (indentation test)” value with OVX rats [5] is given as “increase bone strength”. Moreover, the “lipid metabolism (total cholesterol, HDL, LDL in serum)” value (from here on “lipid metabolism”) in the data set with OVX rats [6] (setting [9]) is given as “limited or no effect”. Besides, the uterine mass result with OVX rats [7] is listed as “limited or no effect”.
For the molecule `COc1ccc(NC(=O)COCCOCCOCCNC(=O)CCO[C@@H]2CCC3C4CCc5cc(O)ccc5C4CCC32C)c(O)c1C(N)=O` (stereo partly drawn) [Formula 124], the “whole bone density (right femora)” value with OVX rats [2] (OVX rats, oral 10, 100, or 1000 μg/kg, three times per week for 6 weeks) is “in the same ranges as those animals receiving 17-ethinyl estradiol (17 EE), Alendronate (Alen), or Parathyroid hormone 1-34 (PTH)”. Also, in the data set on OVX rats [3] (setting [10]), the “bone density from three-dimensional micro-CT images” value was “increase in bone density”. Also, the trabecular volume fraction entry in the data set on OVX rats [3] (OVX rats, oral 10, 100, or 1000 μg/kg, ex vivo micro-CT) was “in the same ranges as those animals receiving 17-ethinyl estradiol (17 EE), Alendronate (Alen), or Parathyroid hormone 1-34 (PTH)”. Further, the “Binding Index” value in data set [4] is recorded as 100. The “new bone area” value in the data set on ICR Swiss mice was “increase new bone area”. In addition, in the data set with OVX rats [5] (setting [10]), the “bone strength (tibial indentation test)” value is “dose-responsive increase in bone strength, relative to the OVX animals”. Moreover, the “lipid metabolism” value in the data set with OVX rats [6] (rat, in vivo) is reported as “limited or no effect”. In addition, in the data set on OVX rats [8], the “regional bone density (left femur)” value is on record as “in the same ranges as those animals receiving 17-ethinyl estradiol (17 EE), Alendronate (Alen), or Parathyroid hormone 1-34 (PTH)”.
For `COc1ccc(NC(=O)COCCOCCNC(=O)COc2ccc(-c3coc4cc(O)cc(O)c4c3=O)cc2)c(O)c1C(N)=O` [Formula 128], in the data set with OVX rats [2], the “whole bone density and regional bone density” value is on record as “increase bone density”. In addition, the “volume fraction (BV/TV) of trabecular” value in the data set with OVX rats [3] is on record as “increase bone density”. For the same molecule, the “new bone area” value with ICR Swiss mice was “increase new bone area”. In the data set on OVX rats [5], the “bone strength (indentation test)” value was “increase bone strength”. Further, in the data set on OVX rats [6] (setting [9]), the “lipid metabolism” value is recorded as “limited or no effect”. Moreover, the uterine mass entry with OVX rats [7] is given as “limited or no effect”.
On to `COc1ccc(NC(=O)COCCOCCNC(=O)CCCC(CO[N+](=O)[O-])O[N+](=O)[O-])c(O)c1C(N)=O` (stereo not drawn) [Formula 130], for which, in the data set on OVX rats [2], the “whole bone density and regional bone density” value is given as “increase bone density”. In addition, the “volume fraction (BV/TV) of trabecular” value in the data set with OVX rats [3] was “increase bone density”. The “Binding Index” value in data set [4] stood at 130. Further, in the data set on ICR Swiss mice, the “new bone area” value is “increase new bone area”. Also, the “bone strength (indentation test)” value in the data set on OVX rats [5] is “increase bone strength”. The “lipid metabolism” value in the data set with OVX rats [6] (setting [9]) is on record as “limited or no effect”. The uterine mass entry in the data set with OVX rats [7] is given as “limited or no effect”.
`NCCCC(O)(P(=O)(O)O)P(=O)(O)O` [alendronate]: the “production of CTX-I (bone resorption marker) in serum” value with OVX rats [1] is “descrease the production of CTX-1 to sham levels”.
